PMC12040169 (PLOS Biology, 2025)

Assay: in vitro
Conditions: human, hela cells, % viability

Row | SMILES | viability at 28.5 h, 10 µM
1 | CNC(=S)N(Cc1ccc(S(N)(=O)=O)cc1)C1CC(=O)N(c2ccc(OC)cc2)C1=O (stereo not shown) [CBK262940] | 95.1%
2 | CCc1cc(=O)oc2cc(OCC(=O)O)c(Cl)cc12 [CBK265182] | 93.9%
3 | O=C(CCNCCc1c[nH]c(=O)[nH]c1=O)Nc1cccc(Cl)c1 [CBK306889] | 86.3%
4 | O=C1CC(C(=O)Nc2ccccc2)NC(Nc2cc(Cl)cc(Cl)c2)=N1 (stereo not shown) [CBK268752] | 106%
5 | CCc1nc2ccc(C(=O)Nc3cccc(OC)c3)cn2c1N(C)Cc1cccs1 [CBK145522] | 96.7%
6 | O=C1Nc2ccccc2C12NN=C(c1ccccc1)S2 (stereo not shown) [CBK017221] | 100%
7 | COc1ccc(C(C)C)cc1-c1nccnc1NCCc1c[nH]c2ccccc12 [CBK036650] | 109%
8 | Cc1ccc(/C(N)=N/OC(=O)CN(C)S(=O)(=O)c2ccc3ccccc3c2)cc1 [CBK267363] | 104%
9 | CC(C)C(NS(=O)(=O)c1ccc2ccccc2c1)C(=O)O (stereo not shown) [CBK286919] | 96.7%
10 | CN(C(=O)c1ccccc1N)c1ccccc1 [CBK086716] | 97.6%
11 | Cc1noc(C)c1S(=O)(=O)NC1CCN(Cc2ccccc2)CC1 [CBK062028] | 83.4%
12 | Clc1ccc(CN2CCC(Oc3cncc(OCC4COc5ccccc5O4)n3)C2)cc1 (stereo not shown) [CBK084364] | 94.7%
13 | COC(=O)c1cc(C#N)c(=O)n(CC(O)COc2cccc(Br)c2)c1 (stereo not shown) [CBK304984] | 80.5%
14 | C=CCN1CCC(C(=O)NC(C)c2ccc(OC)c(OC)c2)CC1 (stereo not shown) [CBK148924] | 91.1%
15 | Cc1ccc2oc([C@H]3CCN(S(C)(=O)=O)C3)nc2c1 [CBK289371] | 97.2%
16 | COCCc1nc(CN(C)C)n(Cc2ccccc2C)n1 [CBK307014] | 87.8%
17 | CCn1cc(C2CN(S(=O)(=O)c3cc(C)c(OC)cc3C)CCO2)cn1 (stereo not shown) [CBK304225] | 84.9%
18 | Cc1ccccc1NS(=O)(=O)c1ccc(OCC(=O)N2CCN(C)CC2)cc1 [CBK267948] | 88.4%
19 | CC(C)Nc1cncc(SCCN(C)C)n1 [CBK105292] | 90.6%
20 | O=C1COc2ccccc2C/C=C/CC2(CCN(C(=O)CCc3cccnc3)CC2)CN1 [CBK292127] | 90.8%
21 | CC(C)(C)NS(=O)(=O)c1ccc(OCC(=O)NCc2ccncc2)cc1 [CBK266434] | 97.3%
22 | O=C(NC1CCCCC1)c1cc(NC(=O)c2ccccc2C(=O)O)ccc1Cl [CBK287062] | 96.3%

Row | SMILES | viability at 28.5 h, 10 µM
23 | Cc1nc([N+](=O)[O-])c(N2CCN(C)CC2)n1Cc1ccccc1 [CBK261421] | 100%
24 | O=C(Nc1ccccc1)N1C[C@@H]2C[C@H](C1)c1c(-c3cccnc3)ccc(=O)n1C2 [CBK289193] | 92.3%
25 | Cc1ccc([N+](=O)[O-])c(OCCN2CCN(Cc3ccccc3)CC2)c1 [CBK268568G] | 99.2%
26 | Oc1cccc(Sc2nc3ccccc3nc2C(F)(F)F)c1 [CBK093780] | 109%
27 | O=C(O)c1c(-c2ccccc2)oc2ccc(NS(=O)(=O)c3ccc(F)cc3)cc12 [CBK299817] | 89.9%
28 | CCCn1c(C)c(C)n2c3c(=O)n(CCC(=O)OC)c(=O)n(C)c3nc12 [CBK306048] | 98.4%
29 | CCn1cncc1CN(CCCn1ccnc1)Cc1ccc(C)s1 [CBK283104] | 93.6%
30 | O=S(=O)(Cc1ccc(Br)cc1)c1cc2c(N3CCNCC3)nccc2s1 [CBK045688C] | 87.4%
31 | O=C(Cn1cncn1)N[C@H]1C2CCCCC2[C@@H]1c1ccccc1 (stereo partly shown) [CBK283011] | 93.3%
32 | O=C(Cc1ccccc1)Nc1ccc(Oc2ccc(C(=O)O)c(C(=O)O)c2)cc1 [CBK263611] | 90.3%
33 | O=C(CCCOc1ccccc1)NCc1ccc(OC2CCNCC2)cc1 [CBK028427T] | 92.1%
34 | CCn1ncc2c1CCCC2NC1CCN(c2ccccc2)C1=O (stereo not shown) [CBK305144] | 93.6%
35 | CC1=NN(c2nc(-c3ccc(Br)cc3)cs2)C(=O)C1/N=N/c1cccc(CO)c1 (stereo not shown) [CBK262429] | 104%
36 | CCN1CCN(C(=O)c2cccn2C)CC1 [CBK200248] | 84.7%
37 | CCCCc1ccc(Nc2csc(N)n2)cc1 [CBK020594] | 82.5%
38 | COc1cc(OC)cc(C(=O)N[C@@H]2CC[C@@]3(c4ccc(OC)c(OC)c4)CCN(C)[C@H]3C2)c1 [CBK074242T] | 115%
39 | CCN1CCN(C(=O)c2ccccc2N(Cc2ccccc2)S(=O)(=O)c2ccc(C)cc2)CC1 [CBK266827] | 91.6%
40 | CC(=O)Nc1ccc(S(=O)(=O)N2CCN(c3ccc(C(F)(F)F)cc3[N+](=O)[O-])CC2)cc1 [CBK264293] | 93.9%
41 | Nn1c(SCCCCSc2nnc(C(F)(F)F)n2N)nnc1C(F)(F)F [CBK267946] | 98.8%
42 | Cc1nnc(N/N=C/c2ccc(OC3CCCC3)cc2)nc1O [CBK058025] | 104%
43 | O=C1N=C(Nc2cccc(C(=O)O)c2)S/C1=C/c1cccc(O)c1 [CBK264984] | 92.5%
44 | COCCn1cnnc1CN(C)C(=O)NC(C)c1nc2ccccc2[nH]1 (stereo not shown) [CBK307155] | 99.6%

Row | SMILES | viability at 28.5 h, 10 µM
45 | Cn1ncc(Nc2ccccc2)c1C(=O)O [CBK013004] | 114%
46 | COc1ccc2[nH]c3c(c2c1)CCN(C=O)C31CCN(Cc2cccc(Cl)c2)C1 (stereo not shown) [CBK040376] | 97.3%
47 | CC(=O)Nc1ccc(Cc2nc(C3CC3)no2)cc1 [CBK305197] | 92.1%
48 | O=C1N(CCc2ccccc2)CC=CCC12CN(Cc1ccc3[nH]ccc3c1)CCO2 (stereo not shown) [CBK286130] | 105%
49 | Cc1ccc(C(C)C)c(OCCSc2nc3c(N)ncnc3[nH]2)c1 [CBK266941] | 94.3%
50 | CC(=O)Nc1ccc(N2C(=O)CC(NCCCN3CCOCC3)C2=O)cc1 (stereo not shown) [CBK265236] | 115%
51 | CC(C)[C@H]1CN(Cc2ccco2)CCN1C(=O)N1CCCCC1 [CBK284272] | 87.6%
52 | CC(C)CCN[C@H]1CO[C@H]2[C@@H]1OC[C@@H]2n1nnnc1-c1ccccc1 [CBK289537] | 88.1%
53 | CC(C)(C)OC(=O)NCc1ccc(CNCc2cc(F)cc(F)c2)cc1 [CBK056707] | 107%
54 | CCn1cc(-c2cncn2CCn2nc(C)c(Cl)c2C)cn1 [CBK281708] | 87.9%
55 | COc1ccc(C(C)C)cc1-c1nccnc1N1CCCN(C)CC1 [CBK036677] | 110%
56 | Cc1cnc(CNS(=O)(=O)c2c(C)noc2C)cn1 [CBK062328] | 104%
57 | COc1ccc(Br)cc1S(=O)(=O)NCc1cccnc1 [CBK264023] | 90.7%
58 | COc1ccc(C(=O)N2CCC3(CCN(C(=O)CCSC)C3)C2)cc1OC (stereo not shown) [CBK131786] | 105%
59 | CCc1c(C)nc2c(C(=O)NCCCN3CCCC3=O)cnn2c1C [CBK162128] | 96.2%
60 | O=C(O)COc1noc2nc3c(cc12)CCCCC3 [CBK269429] | 97.7%
61 | O=S(=O)(Nc1ccc(C(O)(C(F)(F)F)C(F)(F)F)cc1)c1ccc(-c2ccon2)s1 [CBK062105] | 91.2%
62 | CCCc1c(C(=O)N2CCN(c3cnccn3)CC2)cnn1C [CBK305962] | 99%
63 | COc1cc(-c2cncc(Nc3ccc4c(c3)OC(F)(F)C(F)(F)O4)n2)cc(OC)c1OC [CBK065138] | 94.4%
64 | O=C(c1ccccc1)c1ccccc1OCCO [CBK000728] | 116%
65 | Cc1ccccc1OCCCn1cncc1-c1cn(C)nc1C [CBK281813] | 85.1%
66 | Clc1ccccc1CSc1nnc2c(n1)OC=Nc1ccccc1-2 [CBK265085] | 99.1%

Row | SMILES | viability at 28.5 h, 10 µM
67 | Cc1ccc(C23CC4CC(CC(C(=O)NC(C(=O)O)C(C)C)(C4)C2)C3)cc1 (stereo not shown) [CBK264924] | 110%
68 | CN(C)CCCNC(=S)NC(=O)c1ccccc1 [CBK265317] | 117%
69 | COc1ccc(CCC(=O)N2CCCc3c(cnn3C)C2)cc1 [CBK285326] | 111%
70 | Cc1cc(NC(=O)CN(C)C(=O)c2cnc(Cl)c(Cl)c2)no1 [CBK306132] | 101%
71 | COc1ccc(/C=C(\C)C(=O)Nc2cc3ccccc3c(N3CCNCC3)n2)cc1OC [CBK038937T] | 82.1%
72 | CC(C)[C@H](CO)Nc1nccnc1-c1cccc(O)c1 [CBK037542] | 96.1%
73 | Cc1cc(C)[n+]2c(n1)N(c1ccccc1)CC2 [CBK017327G] | 80.7%
74 | FC(F)(F)c1ccnc(SCCc2ccncc2)n1 [CBK105302] | 95.3%
75 | Nc1nc(SCC(=O)N2CCC(c3noc4ccc(F)cc34)CC2)n[nH]1 [CBK267326] | 91.4%
76 | Cc1nc([N+](=O)[O-])c(N2CCN(Cc3ccccc3)CC2)n1Cc1ccccc1 [CBK265675] | 88.7%
77 | Cn1c(SCC(=O)N2CCN(c3ccccc3)CC2)nc2cc(Cl)ccc21 [CBK298295] | 99.7%
78 | CC(=O)N1CCc2c([nH]c3c(C)cccc23)C12CCN(CCOc1ccccc1)C2 (stereo not shown) [CBK039646] | 85.4%
79 | CCN(CC)C(=O)c1ccc(NS(=O)(=O)c2ccc(-c3ccccc3)cc2)cc1 [CBK034395] | 97.5%
80 | CN1CCCC(NC(=O)c2cc(-c3cccs3)no2)C1 (stereo not shown) [CBK282564] | 87.2%
81 | O=C(Nc1cccc(O)c1)c1ccc(Br)c(S(=O)(=O)N2CCCCC2)c1 [CBK261736] | 91.9%
82 | O=C(CSc1nnc(-c2ccc(Cl)cc2Cl)o1)c1ccc2c(c1)OCCO2 [CBK268839] | 113%
83 | COc1ccc([C@@]23CC[C@@H](NC(=O)Nc4ccc(F)c(F)c4)C[C@@H]2N(C)CC3)c(F)c1OC [CBK067405] | 102%
84 | O=C(c1cc(F)c(F)cc1F)N1CCC2(CCN(Cc3cccc(C(F)(F)F)c3)C2)C1 (stereo not shown) [CBK132130] | 102%
85 | O=C(NC(c1ccccc1)c1cccnc1)C1CCN(C(=O)CN2C(=O)c3ccccc3C2=O)CC1 (stereo not shown) [CBK060515] | 108%
86 | CCOC(=O)c1sc(NS(=O)(=O)c2cccc3cccnc23)nc1C [CBK047443] | 91.6%
87 | O=C(NCCc1c[nH]c2ccccc12)NC(=O)C1CCNCC1 [CBK051094] | 90.2%
88 | O=C1O[C@@H](CCl)CN1c1ccc(N2CCOCC2)c(F)c1 [CBK017613] | 105%
